From US10004738B2, “Combination treatment comprising administration of 2-amino-3,5,5-trifluoro-3,4,5,6-tetrahydropyridines” (H. Lundbeck A/S, priority 2015, dated 2018)
Where two headings read alike, the source gives them in different places.

Columns and labels:
[1] = Brain and plasma exposure in rats after oral dosing (DMPK analysis); assay type: in vivo; settings: male, Sprague Dawley, rat, 3 hours post dose
Experimental: Young adult Male Sprague Dawley rats of approximately 250 g weight were purchased from Charles River and received 0-30 mg/kg of vehicle (10% HP betaCD+1M MeSO4, pH 2.5) or test compounds (dissolved in vehicle) only by oral gavage (p.o). The compounds are dosed at a volume of 5 ml/kg. Cohorts of 5-10 animals were established for each treatment condition.
At T=180 minutes after initial dosing the animals were stunned and decapitated with a guillotine. Trunk-blood was sampled in EDTA coated tubes after decapitation of the animal. The blood was centrifuged at 2200G at 4° C. for 15 minutes and the plasma was collected and frozen at −80° C. The blood was aliquoted for Aβ ELISA and DMPK analysis. Immediately following sacrifice, the brain was extracted and split into 2 halves. The right hemibrains were snap frozen on dry ice and stored at −80° C. The left half was dissected; with the front forebrain taken for Aβ ELISA and the remainder used for DMPK analysis. These samples were also snap frozen on dry ice and stored at −80° C. until use for analysis.
Compounds 1, 5, 17, 18, and 24 were administered at doses of 10 or 30 mg/kg p.o. and brain and plasma samples were collected at 3 hours post dose and the following exposures and reductions in Aβ40 levels were measured as described above.

BACE1 enzyme = BACE1 enzyme (Homo sapiens (Human), UniProt P56817); experiment: BACE1 efficacy assay (FRET-based, commercial BACE1 kit); assay type: biochemical; settings: test compound 10 μM, 3 nM enzyme, 250 nM substrate
BACE1 enzyme, sequence (P56817 46-501): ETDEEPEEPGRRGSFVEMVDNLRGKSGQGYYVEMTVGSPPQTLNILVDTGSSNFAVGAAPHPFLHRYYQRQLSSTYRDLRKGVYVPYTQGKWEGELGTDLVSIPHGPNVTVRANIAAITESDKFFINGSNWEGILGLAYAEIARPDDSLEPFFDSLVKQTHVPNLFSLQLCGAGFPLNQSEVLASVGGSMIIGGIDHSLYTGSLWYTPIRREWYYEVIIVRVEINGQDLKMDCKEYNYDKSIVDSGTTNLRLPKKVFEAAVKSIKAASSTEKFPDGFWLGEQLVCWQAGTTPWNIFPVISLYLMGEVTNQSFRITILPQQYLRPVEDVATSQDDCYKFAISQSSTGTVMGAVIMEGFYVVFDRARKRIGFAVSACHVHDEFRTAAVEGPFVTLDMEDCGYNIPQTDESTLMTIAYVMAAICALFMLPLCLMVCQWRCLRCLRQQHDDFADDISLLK
Experimental: The efficacy assay was performed as a FRET-based assay using a commercially available BACE1 kit (Life Technologies, P2985). 2 μl test compound at 10 μM (final concentration) and 15 μl BACE1 enzyme from the kit (final concentration 3 nM) were preincubated for 15 minutes at room temperature before addition of 15 μl of substrate from the kit (250 nM final concentration) and incubated for additional 90 minutes at room temperature. The assay plate was subsequently read in a Pherastar (Ex540/Em590). […] The efficacy of the test compounds was evaluated at 10 μM (final concentration) and defined as the percent inhibition of the enzyme activity using the equation % inhibition=100%−normalized enzyme activity in percent.

[2] = 30 mg/kg p.o., brain, read-out: Exp, brain
[3] = 30 mg/kg p.o., plasma, read-out: Exp, plasma
[4] = 10 mg/kg p.o., brain, read-out: Exp, brain
[5] = 10 mg/kg p.o., plasma, read-out: Exp, plasma

Compound | concentration at 3 h [1, 2] [ng/g] | concentration at 3 h [1, 3] [ng/g] | inhibition at 10 µM (BACE1 enzyme) [%] | concentration at 3 h [1, 4] [ng/g] | concentration at 3 h [1, 5] [ng/g]
C[C@]1(F)CC(F)(F)[C@@](C)(c2cc(NC(=O)c3ccc(F)cn3)ccc2F)N=C1N [Compound 1, N-(3-((2R,5S)-6-amino-3,3,5-trifluoro-2,5-dimethyl-2,3,4,5-tetrahydropyridin-2-yl)-4-fluorophenyl)-5-fluoropicolinamide] | 2190 | 3540 | 104 | – | –
COc1ccc(C(=O)Nc2ccc(F)c([C@@]3(C)N=C(N)[C@@](C)(F)CC3(F)F)c2)nc1 [Compound 17, N-(3-((2R,5S)-6-amino-3,3,5-trifluoro-2,5-dimethyl-2,3,4,5-tetrahydropyridin-2-yl)-4-fluorophenyl)-5-methoxypicolinamide] | 1220 | 828 | 101 | – | –
C[C@@]1(F)CC(F)(F)[C@@](C)(c2cc(NC(=O)c3cnc(C(F)F)cn3)ccc2F)N=C1N [Compound 24, N-(3-((2R,5R)-6-amino-3,3,5-trifluoro-2,5-dimethyl-2,3,4,5-tetrahydropyridin-2-yl)-4-fluorophenyl)-5-(difluoromethyl)pyrazine-2-carboxamide] | 809 | 673 | 98 | 134 | 96.2
COc1cnc(C(=O)Nc2ccc(F)c([C@@]3(C)N=C(N)[C@@](C)(F)CC3(F)F)c2)cn1 [Compound 5, N-(3-((2R,5S)-6-amino-3,3,5-trifluoro-2,5-dimethyl-2,3,4,5-tetrahydropyridin-2-yl)-4-fluorophenyl)-5-methoxypyrazine-2-carboxamide] | 954 | 632 | 96 | 174 | 137
